Assay results as given in patent publication US20090118286A1, “Heterobicyclic Acrylamides” (Bayer Cropscience AG, priority 2005, published 2009).

Assay: log P determination by HPLC (EEC Directive 79/831 Annex V.A8, gradient method)
Format: physicochemical

Cc1ccccc1-c1nc2sc(C(F)(F)F)nn2c1/C=C/C(=O)O [VA-5]
Physical data (logP): 2.77

Cc1csc2nc(-c3ccccc3Cl)c(/C=C/C(=O)NC(C)C)n12 [Example 0890]
Physical data: logP: 2.09

Cc1cn2c(/C=C/C(=O)NCC(C)(C)C)c(-c3ccccc3Cl)nc2s1 [Example 0863]
Physical data: logP: 2.89

O=C(O)/C=C/c1c(-c2ccccc2F)nc2sc(C(F)(F)F)nn12 [VA-8]
Physical data (logP): 2.55

O=C(O)/C=C/c1c(-c2ccc(F)cc2Cl)nc2sc(C(F)(F)C(F)(F)F)nn12 [VA114]
Physical data (logP): 3.31

CC(NC(=O)/C=C/c1c(-c2ccc(F)cc2)nc2sc(C(F)(F)F)nn12)c1ccccn1 (stereo not shown) [Example 0345]
Physical data: log P: 2.45

Cc1csc2nc(-c3ccccc3Cl)c(/C=C/C(=O)NCCC(C)C)n12 [Example 0886]
Physical data: logP: 2.75

CC(NC(=O)/C=C/c1c(-c2sccc2Cl)nc2sc(C(F)(F)F)nn12)C(F)(F)F (racemic) [Example 0922]
Physical data: logP: 3.65

O=Cc1c(-c2ccc(-c3ccc(OC(F)(F)F)cc3)cc2)nc2sc(C(F)(F)F)nn12 [IVA121]
Physical data (logP): 4.78

CC(C)NC(=O)/C=C/c1c(-c2sccc2Cl)nc2sc(C(F)(F)F)nn12 [Example 0920]
Physical data: logP: 3.19

O=C(/C=C/c1c(-c2cccc(C(F)(F)F)c2)nc2sc(C(F)(F)F)nn12)NC1CCCC1 [Example 0377]
Physical data: log P: 4.27

CC(NC(=O)/C=C/c1c(-c2ccccc2Cl)nc2sc(C(C)(C)C)nn12)C(F)(F)F (stereo not shown) [Example 0795]
Physical data: logP: 3.88

CC(NC(=O)/C=C/c1c(-c2cccc(C(F)(F)F)c2)nc2sc(C(F)(F)F)nn12)c1ccccc1 (stereo not shown) [Example 0402]
Physical data: log P: 4.46

CC(C)NC(=O)/C=C/c1c(-c2ccccc2Cl)nc2sc(C(F)(F)F)cn12 [Example 0906]
Physical data: logP: 3.23

O=C(C=Cc1c(-c2ccc(F)cc2Cl)nc2sc(C(F)(F)F)nn12)NC(CC(F)(F)F)c1ccccc1 (stereo not shown) [Example 0609]
Physical data: log P: 4.25

CC(C)CNC(=O)/C=C/c1c(-c2ccccc2Cl)nc2sc(-c3ccc(C(F)(F)F)cc3)nn12 [Example 0838]
Physical data: logP: 4.37

COCc1nn2c(/C=C/C(=O)NC3CC3)c(-c3ccccc3Cl)nc2s1 [Example 0829]
Physical data: logP: 2.2

COc1ccc(-c2nc3sc(C(F)(F)F)nn3c2/C=C/C(=O)NCC2CC2)cc1OC [Example 0660]
Physical data: logP: 2.95

CC(C)(C)NC(=O)/C=C/c1c(-c2ccccc2Cl)nc2sc(C(C)(C)C)nn12 [Example 0801]
Physical data: logP: 3.95

CC(NC(=O)/C=C/c1c(-c2cccc(C(F)(F)F)c2)nc2sc(C(F)(F)F)nn12)C(F)(F)F (stereo not shown) [Example 0388]
Physical data: log P: 4.27

CCN(CC)C(=O)/C=C/c1c(-c2ccc(F)cc2)nc2sc(C(F)(F)F)nn12 [Example 0363]
Physical data: log P: 3.72

Cc1csc2nc(-c3ccccc3Cl)c(/C=C/C(=O)NC3CCC3)n12 [Example 0896]
Physical data: logP: 2.26

CC(NC(=O)/C=C/c1c(-c2ccc(Cl)cc2)nc2sc(C(F)(F)F)nn12)c1ccccn1 (stereo not shown) [Example 0052]
Physical data (logP): 2.77

O=C(O)/C=C/c1c(-c2cccc(C(F)(F)F)c2)nc2sc(C(F)(F)F)nn12 [VA-7]
Physical data (logP): 3.33

COc1ccc(-c2nc3sc(C(F)(F)F)nn3c2/C=C/C(=O)NC(C)C(F)(F)F)cc1OC (stereo not shown) [Example 0669]
Physical data: logP: 3.29

CC(NC(=O)/C=C/c1c(-c2ccccc2Cl)nc2sc(C(F)(F)F)nn12)c1ccccc1 (racemic) [Example 0189]
Physical data (logP): 3.81

CC(C)C(NC(=O)C=Cc1c(-c2sccc2Cl)nc2sc(C(F)(F)F)nn12)C(F)(F)F (stereo not shown) [Example 0923]
Physical data: logP: 4.23

O=C(/C=C/c1c(-c2ccc(F)cc2Cl)nc2sc(C(F)(F)F)nn12)NC1(C(F)(F)F)CC1 [Example 0913]
Physical data: logP: 3.71

CC(C)C(NC(=O)C=Cc1c(-c2nccs2)nc2sc(C(F)(F)C(F)(F)F)nn12)C(F)(F)F (stereo not shown) [Example 0988]
Physical data: logP: 4.35

O=Cc1c(-c2cncc(Br)c2)nc2sc(C(F)(F)F)nn12 [IVA115]
Physical data (logP): 2.62

O=Cc1c(-c2ccc(OCc3ccccc3)cc2)nc2sc(C(F)(F)F)nn12 [IVA120]
Physical data (logP): 4.02

COCC(C)NC(=O)/C=C/c1c(-c2ccc(F)cc2)nc2sc(C(F)(F)F)nn12 (stereo not shown) [Example 0311]
Physical data: log P: 3.07

CCC(NC(=O)C=Cc1c(-c2ccc(F)cc2)nc2sc(C(F)(F)F)nn12)c1ccccc1 (stereo not shown) [Example 0332]
Physical data: log P: 4.18

CCN(CC)C(=O)/C=C/c1c(-c2cccc(C(F)(F)F)c2)nc2sc(C(F)(F)F)nn12 [Example 0434]
Physical data: log P: 4.42

CCCC(C)NC(=O)/C=C/c1c(-c2cccc(Cl)c2)nc2sc(C(F)(F)F)nn12 (stereo not shown) [Example 0088]
Physical data (logP): 4.37

CC(COc1ccccc1)NC(=O)/C=C/c1c(-c2ccccc2Cl)nc2sc(C(F)(F)F)nn12 (racemic) [Example 0194]
Physical data (logP): 4.03

O=C(/C=C/c1c(-c2cccc(C(F)(F)F)c2)nc2sc(C(F)(F)F)nn12)NC1CCCCC1 [Example 0378]
Physical data: log P: 4.61

CCC(NC(=O)C=Cc1c(-c2ccccc2Cl)nc2sc(C(F)(F)F)nn12)C1CCCCC1 (stereo not shown) [Example 0196]
Physical data (logP): 4.82

CCC(NC(=O)C=Cc1c(-c2cccc(C(F)(F)F)c2)nc2sc(C(F)(F)F)nn12)c1ccccc1 (stereo not shown) [Example 0403]
Physical data: log P: 4.72

O=C(/C=C/c1c(-c2ccccc2Cl)nc2sc(-c3ccc(C(F)(F)F)cc3)nn12)NC1CCCC1 [Example 0853]
Physical data: logP: 4.44

CCC(NC(=O)C=Cc1c(-c2cccc(C(F)(F)F)c2)nc2sc(C(F)(F)F)nn12)C1CCCCC1 (stereo not shown) [Example 0409]
Physical data: log P: 5.48

Cc1cn2c(/C=C/C(=O)Nc3ccc(Cl)cc3)c(-c3ccccc3Cl)nc2s1 [Example 0877]
Physical data: logP: 3.57

NC(=O)/C=C/c1c(-c2ccc(Cl)cc2)nc2sc(C(F)(F)F)nn12 [Example 0004]
Physical data (logP): 2.62

CC(C)(C)c1nn2c(/C=C/C(=O)Nc3ccc(Cl)cc3)c(-c3ccccc3Cl)nc2s1 [Example 0811]
Physical data: logP: 4.72

O=C(/C=C/c1c(-c2cccc(Cl)c2)nc2sc(C(F)(F)F)nn12)NC1CC1 [Example 0082]
Physical data (logP): 3.31

CC(C)(C)NC(=O)/C=C/c1c(-c2ccc(F)cc2)nc2sc(C(F)(F)F)nn12 [Example 0302]
Physical data: log P: 3.81

COc1ccc(-c2nc3sc(C(F)(F)F)nn3c2/C=C/C(=O)NC(C)COc2ccccc2)cc1OC (stereo not shown) [Example 0689]
Physical data: logP: 3.72

COc1ccc(-c2nc3sc(C(F)(F)F)nn3c2/C=C/C(=O)NC(C)c2ccccc2)cc1OC (stereo not shown) [Example 0683]
Physical data: logP: 3.5

CC(C)(C)NC(=O)/C=C/c1c(-c2ccc(Cl)cc2)nc2sc(C(F)(F)F)nn12 [Example 0009]
Physical data (logP): 4.23

CCCC(C)NC(=O)/C=C/c1c(-c2ccc(F)cc2)nc2sc(C(F)(F)F)nn12 (stereo not shown) [Example 0310]
Physical data: log P: 3.9

Cc1ccccc1-c1nc2sc(C(F)(F)F)nn2c1/C=C/C(=O)NC1CCCC1 [Example 0235]
Physical data: log P: 3.68

COCC(C)NC(=O)/C=C/c1c(-c2cccc(C(F)(F)F)c2)nc2sc(C(F)(F)F)nn12 (stereo not shown) [Example 0382]
Physical data: log P: 3.68

CC(NC(=O)/C=C/c1c(-c2ccccc2Cl)nc2sc(-c3ccc(C(F)(F)F)cc3)nn12)C(C)(C)C (stereo not shown) [Example 0848]
Physical data: logP: 4.83

CC(C)NC(=O)/C=C/c1c(-c2cccnc2Cl)nc2sc(C(F)(F)F)nn12 [Example 0946]
Physical data: logP: 2.47

CCN(CC)C(=O)/C=C/c1c(-c2cccc(Cl)c2)nc2sc(C(F)(F)F)nn12 [Example 0140]
Physical data (logP): 4.28

CC(C)C(NC(=O)C=Cc1c(-c2ccccc2Cl)nc2sc(C(F)(F)C(F)(F)F)nn12)C(F)(F)F (stereo not shown) [Example 0962]
Physical data: logP: 4.62

COc1ccc(-c2nc3sc(C(F)(F)F)nn3c2/C=C/C(=O)N2CCOCC2)cc1OC [Example 0718]
Physical data: logP: 2.58

O=C(C=Cc1c(-c2ccc(F)cc2Cl)nc2sc(C(F)(F)F)nn12)NC1CCCCC1C(F)(F)F (stereo not shown) [Example 0600]
Physical data: log P: 4.12

CC(C)(C)NC(=O)/C=C/c1c(-c2cccc(C(F)(F)F)c2)nc2sc(C(F)(F)F)nn12 [Example 0373]
Physical data: log P: 4.41

O=C(O)/C=C/c1c(-c2ccccc2Cl)nc2sc(C(F)(F)C(F)(F)F)nn12 [VA113]
Physical data (logP): 3.19

CC(NC(=O)/C=C/c1c(-c2cccc(Cl)c2)nc2sc(C(F)(F)F)nn12)c1ccccc1 (stereo not shown) [Example 0108]
Physical data (logP): 4.37

CC(COc1ccccc1)NC(=O)/C=C/c1c(-c2ccc(Cl)cc2)nc2sc(C(F)(F)F)nn12 (stereo not shown) [Example 0043]
Physical data (logP): 4.51

O=C(/C=C/c1c(-c2ccc(Cl)cc2)nc2sc(C(F)(F)F)nn12)NC1CCCC1 [Example 013]
Physical data (logP): 4.03

Cc1csc2nc(-c3ccccc3Cl)c(/C=C/C(=O)NC(C(C)C)C(F)(F)F)n12 (stereo not shown) [Example 0884]
Physical data: logP: 3.11

Cc1cn2c(/C=C/C(=O)Nc3ccc(C(F)(F)F)cc3)c(-c3ccccc3Cl)nc2s1 [Example 0879]
Physical data: logP: 3.88

O=C(/C=C/c1c(-c2cccc(Cl)c2)nc2sc(C(F)(F)F)nn12)N1CCCCC1 [Example 0141]
Physical data (logP): 4.37

COc1ccc(-c2nc3sc(C(F)(F)F)nn3c2/C=C/C(=O)NC2CCCC2)cc1OC [Example 0658]
Physical data: logP: 3.26
